For series [1] the following is noted: literature reference value; cited from earlier work.
Series [2] is described as follows: Tracer biodistribution studies in mice (γ-counter, % ID/g). How it is done:
Compounds [^11C]-1, [^11C]-2, [^11C]-3, [^11C]-4, [^11C]-6, [^11C]-7 and Technetium-99 m methoxy isobutyl isonitrile ([^99mTc]MIBI) biodistribution studies were carried out with BALB/c Ola/Hsd mice (7-8 week). Tracers were injected in a 10% EtOH/saline solution as vehicle. Either [^11C]-1 (62±15 μCi; […]; 122±13 μL), [^11C]-2 (68±12 μCi; 2.5±0.4 MBq; 188±1.3 μL), [^11C]-3 (70±17 μCi; 2.6±0.6 MBq; 185±5 μL), [^11C]-4 (18±5 μCi; […]; 195±2.2 μL or 1.24±0.93 MBq, 229±63 μL), [^11C]-6 (1.95±0.21 MBq, 83±41 μL), [^11C]-7 (2.01±0.16 MBq, 169±73 μL) or [^99mTc]mibi (14.2±1.7 μCi; 3.6±0.4 MBq; 97.7±12.5 μL) were injected via the lateral vein. At allotted time points (1, 5, 10, 15 min), blood was drawn from the orbital sinus, mice were sacrificed by cervical dislocation and selected organs (heart, lungs, liver and kidney) were excised, weighed and measured for their radioactive content using a γ-counter (1480 Wizard 3″). Distribution of activity was calculated as the percentage of injected dose per gram of organ (% ID/g). Activity uptake ratios of various organs were calculated by dividing the corresponding calculated % ID/gs.
Distribution of activity was calculated as the percentage of injected dose per gram of wet tissue (% ID/g). Activity uptake ratios of various organs were calculated by dividing the corresponding calculated % ID/g. Heart standardized uptake values (SUVs) were calculated by dividing the % ID in the heart of each rat by the percentage of heart weight of the total body weight of the animal.

Series [3] is described as follows: Biodistribution of [11C]-4 in rats (γ-counter, % ID/g, heart SUV). It counts as in vivo, SD/Hsd rats. The method, then:
Similar to the biodistribution studies in mice, [^11C]-4 was injected into male SD/Hsd rats (293±9 g) in a 10% EtOH/saline solution (3.1±0.5 MBq; 530±134 μL) via the lateral tail vein. At the allotted time points, blood was drawn, animals were sacrificed, and selected organs were excised, weighed and measured for their radioactive content.

Series [4] in a line: PET/CT studies in a porcine model of LCx coronary artery occlusion (rest and adenosine stress). It counts as in vivo, pigs. The method, then: Following a constriction of the left circumflex coronary artery (LCxA) via insertion and manipulation of a stent, stress and rest dynamic-PET studies were performed in three pigs. Pigs underwent dynamic PET acquisition following injections of [^11C]-4 both at rest and under pharmacological stress [(207±30 MBq in 10±4 mL) and (203±11 MBq in 16±1 mL), respectively]. Images were acquired for each animal at rest and stress on the same day, allowing a minimum of 5 half-lives (approximately 2 h for carbon-11 and 1 h for nitrogen-13) in between injections to minimize crosstalk. Pharmacological stress was induced by an IV infusion of adenosine (500 μg×min^−1×kg^−1 body weight), beginning 3 min prior to injection of the tracers, and maintained for an additional 3 min. When necessary, hypotension was prevented by concomitant IV administration of dobutamine (2 μg×min^−1×kg^−1 body weight).
In order to prevent complete occlusion in the third pig, the angiography and stent insertion were carried out in the PET/CT room, thus minimizing the animal's movement, and the animal was given higher doses of heparin (a sum of 30,000 units throughout the experiment) based on Activated Clotting Time (ACT) test. In the third pig, the adenosine stress protocol was performed twice: once with [^13N]NH3 (700 MBq in 1 mL) injection, and 2.5 h later, the adenosine stress protocol was repeated with [^11C]-4 injection.
To prevent blood clotting, pigs were treated with aspirin (250-300 mg) and plavix (150-300 mg) on the day before the procedure. On the day of the study, the animals were anesthetized using ketamine/xylazine (15 mg/kg/2 mg/kg) and Butorphanol 0.2 mg/kg IM as premedication. For induction, ketamin/diazepam (4 mg/kg/0.02 mg/kg) was administered intravenously. Animals were ventilated and anesthesia, maintained using isoflorane 2% inhalation (via tracheal tube). Animals were monitored continuously for ECG, body temperature, O2 saturation, blood pressure, pulse and breathing. Vascular access was prepared in the left and right ear veins for drug and tracer administration, and a catheter was placed in the left femoral artery for stent insertion and arterial blood pressure measurements.
Following anesthesia, the pigs underwent cannulation of the left femoral artery with a 7 Fr introducer sheath and a 7 Fr hockeystick catheter (Cordis) was positioned in the left main coronary artery. Partial LCx coronary artery occlusion was induced via partial inflation of the proximal component of a JOSTENT Graftmaster (Abbott Vascular, USA) inside the LCx coronary artery, creating a funnel-shaped structure. Before insertion of the stent, the 3.5×16 mm JOSTENT was partially crimped over a 3.5 mm balloon with its distal third beyond the inflating balloon. Inflation of the balloon dilates the crimped part leaving a distal cone that is not dilated with an orifice approximately 1 mm in diameter. Thus, when deployed in an artery that is 3.5 mm in diameter, a partial, yet significant stenosis was established.
Coronary angiography was performed with 20-30 mL of contrast media and 3.5 mm wide and >20 mm long segment of the LCx artery that was free of major branches. The stent system was brought to the assigned segment over a floppy 0.014 coronary wire (ASAHI). The balloon was inflated with a pressure of 14-16 atmospheres (10-15 seconds) and the balloon was then deflated and withdrawn. Angiography was then performed in two different projections to ascertain that the cone-shaped stent enabled preserved continuous flow through its patent distal orifice. To ensure partial stenosis rather than complete occlusion of the artery during the PET imaging, a repeated angiography was taken at the end of imaging.
Animals were placed in a supine position with the heart in the center of the field of view of the PET/CT scanner. Imaging was performed on a Discovery ST PET/CT tomograph (GE Healthcare, Milwaukee, Wis.), with intrinsic spatial resolution: in-plane 6.2 mm, axial 5.0 mm. […]

Series [5] in a line: Micro-PET scans in rats, time activity curves. The class given is in vivo, Wistar rats. The conditions noted are these: microPET; for myocardial radioactivity uptake: isoflurane anesthesia. The method, then: Micro-PET scans were also carried out using healthy Wistar rats (154±47 g). Anesthesia was induced, and thereafter maintained by 3% and 1%-2.5% isoflurane in O2, respectively. During the scans, rats were maintained normothermic using a heating blanket. All CT and PET acquisitions were carried out using the Inveon™ multimodality PET-CT small animal-dedicated scanner (Siemens Medical Solutions USA Inc.). Rats were positioned in the scanner so that the heart was in the center of the field of view. Following a CT scan, PET list-mode acquisition was started at the time of injection of [^11C]-4 (14.3±5.7 Mbq/rat, n=4) or [^13N]—NH3 (81.1±20.4 Mbq/rat, n=6) in the lateral tail vein. Acquisitions continued for 60 min or 40 min post-injection, for [^11C]-4 or [^13N]—NH3, respectively.
The list-mode emission scans were sorted into 29 (6×10, 8×30, 5×60, 10×300 sec) and 24 (12×10, 6×30, 5×300, 1×600 sec) dynamic frames, for [^11C]-4 and [^13N]—NH3 respectively. Emission sinograms were normalized and corrected for attenuation, dead time and decay. Image reconstruction was performed using Fourier rebinning and two dimensional ordered-subsets expectation maximization (2D-OSEM), with a voxel size of 0.776×0.776×0.796 mm^3.
Image analysis and quantification of radioactivity concentration in regions of interest (ROIs) were performed using Inveon Research Workplace 3.1 (Siemens Medical Solutions USA Inc.). Delineation of ROIs was performed by manual segmentation, and the corresponding time activity curves (TACs) were calculated.

Setting [6] is: mice, time point not stated (within 15 min period).
The mark [7] stands for this setting: BALB/c Ola/Hsd, mouse, in vivo, 5 min.
[8] abbreviates: BALB/c Ola/Hsd, mouse, in vivo, 10 min.
The mark [9] stands for this setting: BALB/c Ola/Hsd, mouse, in vivo, 15 min.

These results are taken from patent US9205156B2, “Molecular imaging agents” (HADASIT MEDICAL RESEARCH SERVICES & DEVELOPMENT LIMITED, priority 2010, dated 2015).

Several values for one entry are separate records, joined by “and”; a condition that tells them apart may be missing. Equal entries are not always repeated.

The term log P denotes the decadic logarithm of the partition coefficient of the neutral form, usually between octanol and water. As for `C[N+](C)([11CH3])c1ccccc1` [[^11C]-2, [^11C]trimethyl-phenyl-ammonium iodide], the “log P” value in series [1] is recorded as −2.74. Also, the “radioactivity uptake in the heart” value in series [2] (mice, 1 min post injection) was 29.5 % ID/g; in series [2] (mice, 5 min post injection), 26.8 % ID/g; in series [2] (mice, 10 min post injection), 18.5 % ID/g and ~20 % ID/g; in series [2] (mice, 15 min post injection) it was 13.9 % ID/g. Also, the “heart/blood activity uptake ratio” value is 15.5 fold in series [2] (mice, 5 min post injection); 13.3 fold and ~13 fold in series [2] (mice, 10 min post injection); 16 fold in series [2] (setting [6]). Moreover, the “heart/liver activity uptake ratio” value in series [2] (mice, 5 min post injection) is 1.9. Also, the “heart/lungs activity uptake ratio” value in series [2] (mice, 5 min post injection) came to 2.6.

As to `C[N+]([11CH3])(c1ccccc1)c1ccccc1` [[^11C]-4, [^11C]dimethyl-diphenyl-ammonium iodide], the “stable heart SUVs” value in series [3] is recorded as “about 15”. Besides, the heart/blood activity ratios in series [3] (5-15 min after injection) is recorded as 67.5-88.5. For the same compound, in series [3] (10 min after injection), the heart/kidneys uptake ratio was found to be 3.5, the heart/liver uptake ratio was 3.2 and the heart/lungs uptake ratio is recorded as 2.4. In series [3] (15 min post injection), the “Heart SUV” value was 15.6±0.4; the heart/blood activity ratio result is “about 90”; the “radioactivity in the heart compared to the lungs, kidneys and the liver” value was “approximately 5 fold”. In addition, the “radioactivity uptake in the heart” value in series [3] (throughout the first 15 min) is “approximately 5 % ID/g”. The “myocardial perfusion image finding, rest and stress” value in series [4] (pig 1, complete stent occlusion) is “very severe, non-filling defect”. Also, the “myocardial perfusion image finding, rest and stress” value in series [4] (pig 2, acute myocardial infarction) is “severe, fixed, inferior wall defect, with partial inferolateral wall reversibility”. Further, in series [4] (pig 3, partial LCx stenosis), the “myocardial perfusion image finding at adenosine stress” value was “severe inferolateral defect” and the “myocardial perfusion image finding at rest” value is “filling in of that defect”. For the same compound, in series [4] (pig 3, time-activity curves), the “time to minimum of blood pool activity” value came to 5 min and the “time to plateau of cardiac accumulation” value is “approximately 10 min”. In addition, in series [5], the “kidney radioactivity uptake, initial peak value” was found to be 6 % ID/mL and the myocardial radioactivity uptake was about 3 % ID/mL. In addition, the kidney radioactivity uptake in series [5] (20 min after injection) is listed as about 1 % ID/mL. The “radioactivity uptake in the heart” value in series [2] (BALB/c Ola/Hsd, mouse, in vivo, 1 min) came to 46.6 % ID/g. Also, in series [2] (setting [7]), the “heart/blood activity uptake ratio” value is recorded as 44 fold and the “radioactivity uptake in the heart” value is reported as 50.4 % ID/g. For the same compound, in series [2] (setting [8]), the “heart/blood activity uptake ratio” value is 61 fold and the “radioactivity uptake in the heart” value came out at 62.5 % ID/g. Also, in series [2] (setting [9]), the “Heart SUV” value is given as 9.7±0.5 and the “radioactivity uptake in the heart” value was found to be 44.5 % ID/g. Further, in series [2] (mouse, in vivo), the “heart uptake compared to [99mTc]-MIBI” value is reported as “twice as high”.

On to `Cc1cccc([N+](C)(C)[11CH3])c1` [[^11C]-6, [^11C]Methyl-dimethyl-m-tolyl-ammonium iodide], for which, in series [2] (mice, 10 min post injection), the “heart/blood activity uptake ratio” value was about 13 fold and the “radioactivity uptake in the heart” value was about 20 % ID/g.

With `C[N+](C)([11CH3])c1cccc2ccccc12.O=S(=O)([O-])C(F)(F)F` [[^11C]-7, [^11C]Methyl-dimethyl-1-naphtylammonium trifluoro-methane-sulfonate], in series [2] (mice, 10 min post injection), the “radioactivity uptake in the heart” value is listed as about 33 % ID/g. Also, the “heart/blood activity uptake ratio” value in series [2] (setting [6]) is recorded as at most 20 fold.

Turning to `[13NH3]` [[^13N]NH3, [^13N]ammonia, reference compound], the “myocardial perfusion image finding at adenosine stress” value in series [4] (pig 3, partial LCx stenosis) was “severe inferolateral defect”. Moreover, in series [5], the “kidney radioactivity uptake, initial peak value” came out at 3 % ID/mL and the myocardial radioactivity uptake was at most 1.7 % ID/mL.

For `[99Tc].[C-]#[N+]CC(C)(C)OC.[C-]#[N+]CC(C)(C)OC.[C-]#[N+]CC(C)(C)OC.[C-]#[N+]CC(C)(C)OC.[C-]#[N+]CC(C)(C)OC.[C-]#[N+]CC(C)(C)OC` [[^99mTc]MIBI, Technetium-99 m methoxy isobutyl isonitrile, reference compound], the “radioactivity uptake in the heart” value in series [2] (mice, 1 min post injection) is 24 % ID/g; in series [2] (mice, 5 min post injection) it was 20.5 % ID/g; in series [2] (mice, 10 min post injection), 21.4 % ID/g; in series [2] (mice, 15 min post injection) it was 13.8 % ID/g. For the same compound, the “heart/blood activity uptake ratio” value in series [2] (mice, 15 min post injection) is given as 45.1 fold.

On to “[^11C]tetramethyl-ammonium iodide [[^11C]-1]”, for which, in series [1], the “log P” value was −3.92. In series [2] (mice), the “cardiac uptake, folds lower than in the kidneys” value turned out to be 9 folds and the “cardiac uptake, folds lower than in the liver” value was determined as 3 folds. In addition, in series [2] (mice, 1-15 min post injection), the “activity accumulation in the heart over all observed time points” value was 0.7-1.1 % ID/g. In series [2] (setting [6]), the “heart/blood activity uptake ratio” value was “less than 6 fold”.
